Experimental data as given in paper PMC5094563 (Chemmedchem, 2016).
Read-outs that look alike come from different tables or passages of the source.

Legend:
p110α = p110α (Homo sapiens, UniProt P42336); experiment: Biochemical IC50 assay
p110β = p110β (Homo sapiens, UniProt P42338); experiment: Biochemical IC50 assay
[1] = male Wistar rats; cited from earlier work
[2] = male CD1 mice; cited from earlier work
[3] = female Beagle dogs; cited from earlier work
[4] = male humans; cited from earlier work
Caco2 = conditions: 10 μM, absence of a P‐gp inhibitor; cited from earlier work
P‐gp [5] = conditions: cited from earlier work
BCRP [6] = conditions: cited from earlier work
P‐gp [7] = conditions: read-out: P‐gp mediated transport inhibition IC50, cited from earlier work
BCRP [8] = conditions: read-out: BCRP mediated transport inhibition IC50; for topotecan; cited from earlier work
[9] = all species investigated including mouse, rat, dog and monkey; cited from earlier work

Chain of p110β (P42338 109-1070): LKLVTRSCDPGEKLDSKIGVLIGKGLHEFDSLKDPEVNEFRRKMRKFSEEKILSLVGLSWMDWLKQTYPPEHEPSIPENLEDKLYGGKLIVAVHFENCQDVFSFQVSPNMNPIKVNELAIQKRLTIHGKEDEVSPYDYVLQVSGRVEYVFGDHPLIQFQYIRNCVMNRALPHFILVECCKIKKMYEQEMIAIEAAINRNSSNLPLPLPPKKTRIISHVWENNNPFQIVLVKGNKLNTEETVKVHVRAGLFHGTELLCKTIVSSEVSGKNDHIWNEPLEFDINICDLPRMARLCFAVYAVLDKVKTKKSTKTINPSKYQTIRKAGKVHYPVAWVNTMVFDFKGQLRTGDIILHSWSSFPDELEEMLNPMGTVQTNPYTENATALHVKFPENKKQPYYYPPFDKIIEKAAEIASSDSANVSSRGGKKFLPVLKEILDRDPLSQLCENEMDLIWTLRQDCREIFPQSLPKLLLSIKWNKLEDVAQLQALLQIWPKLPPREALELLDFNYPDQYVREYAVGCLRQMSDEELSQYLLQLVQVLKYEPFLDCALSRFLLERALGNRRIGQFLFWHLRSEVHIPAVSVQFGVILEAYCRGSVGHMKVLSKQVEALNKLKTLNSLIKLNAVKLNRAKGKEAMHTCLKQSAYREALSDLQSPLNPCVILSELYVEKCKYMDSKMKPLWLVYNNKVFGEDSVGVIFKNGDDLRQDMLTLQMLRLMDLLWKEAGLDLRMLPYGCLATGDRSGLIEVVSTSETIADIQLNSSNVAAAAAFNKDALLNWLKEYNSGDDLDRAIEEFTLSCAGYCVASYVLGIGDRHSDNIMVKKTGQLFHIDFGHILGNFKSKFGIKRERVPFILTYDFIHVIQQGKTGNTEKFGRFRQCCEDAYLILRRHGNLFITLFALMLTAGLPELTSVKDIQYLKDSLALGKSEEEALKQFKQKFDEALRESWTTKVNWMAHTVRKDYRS
Chain of p110α (P42336 109-1068): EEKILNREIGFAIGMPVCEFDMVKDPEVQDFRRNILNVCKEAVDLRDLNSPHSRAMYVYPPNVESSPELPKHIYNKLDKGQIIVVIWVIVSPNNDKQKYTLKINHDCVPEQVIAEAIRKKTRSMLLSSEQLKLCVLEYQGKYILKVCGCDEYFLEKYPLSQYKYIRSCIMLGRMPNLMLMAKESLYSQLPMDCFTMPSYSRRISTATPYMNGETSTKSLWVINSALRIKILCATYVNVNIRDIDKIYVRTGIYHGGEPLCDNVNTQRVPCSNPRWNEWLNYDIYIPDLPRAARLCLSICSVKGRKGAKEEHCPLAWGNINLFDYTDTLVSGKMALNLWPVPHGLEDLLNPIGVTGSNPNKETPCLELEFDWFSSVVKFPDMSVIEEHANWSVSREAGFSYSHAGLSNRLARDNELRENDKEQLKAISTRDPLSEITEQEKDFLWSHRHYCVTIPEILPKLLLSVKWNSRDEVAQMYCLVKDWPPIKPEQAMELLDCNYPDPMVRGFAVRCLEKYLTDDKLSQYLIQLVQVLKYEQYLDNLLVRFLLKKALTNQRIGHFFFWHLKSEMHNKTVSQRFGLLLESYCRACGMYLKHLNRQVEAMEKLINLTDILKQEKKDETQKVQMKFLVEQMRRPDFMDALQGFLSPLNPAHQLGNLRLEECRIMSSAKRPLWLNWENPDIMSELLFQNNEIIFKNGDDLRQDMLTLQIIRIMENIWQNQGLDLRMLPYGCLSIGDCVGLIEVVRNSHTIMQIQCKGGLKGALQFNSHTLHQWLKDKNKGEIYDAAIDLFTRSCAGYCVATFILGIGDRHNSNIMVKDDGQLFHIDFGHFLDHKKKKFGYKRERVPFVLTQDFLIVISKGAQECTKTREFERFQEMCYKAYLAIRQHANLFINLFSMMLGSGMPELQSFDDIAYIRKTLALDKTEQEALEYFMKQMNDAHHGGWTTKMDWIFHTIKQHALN

SMILES | IC50 (p110α) | IC50 (p110β) | further results
COc1c(OCc2ccccc2)ccc2c1N=C(NC(=O)c1cccnc1)N1CCN=C21 [Compd 30, N ‐[8‐(Benzyloxy)‐7‐methoxy‐2,3‐dihydroimidazo[1,2‐c]quinazolin‐5‐yl]nicotinamide] | 6.1 nM | 1510 nM | 
COc1c(O)ccc2c1N=C(NC(=O)c1cccnc1)N1CCN=C21 [Compd 31, N ‐(8‐Hydroxy‐7‐methoxy‐2,3‐dihydroimidazo[1,2‐c]quinazolin‐5‐yl)nicotinamide] | 8.7 nM | 210 nM | 
CCOc1ccc2c(c1OC)N=C(NC(=O)c1cccnc1)N1CCN=C21 [Compd 32 b, N ‐(8‐Ethoxy‐7‐methoxy‐2,3‐dihydroimidazo[1,2‐c]quinazolin‐5‐yl)nicotinamide] | 3.6 nM | 76.1 nM | 
COc1c(OCC(C)C)ccc2c1N=C(NC(=O)c1cccnc1)N1CCN=C21 [Compd 32 c, N ‐(8‐Isobutoxy‐7‐methoxy‐2,3‐dihydroimidazo[1,2‐c]quinazolin‐5‐yl)nicotinamide] | 8 nM | 226 nM | 
COc1c(OCCCN(C)C)ccc2c1N=C(NC(=O)c1cccnc1)N1CCN=C21 [Compd 32 e, N ‐{8‐[3‐(Dimethylamino)propoxy]‐7‐methoxy‐2,3‐dihydroimidazo[1,2‐c]quinazolin‐5‐yl}nicotinamide] | 3.6 nM | 18 nM | 
COc1c(OCCCN2CCCCC2)ccc2c1N=C(NC(=O)c1cccnc1)N1CCN=C21 [Compd 32 f, N ‐{7‐Methoxy‐8‐[3‐(piperidin‐1‐yl)propoxy]‐2,3‐dihydroimidazo[1,2‐c]quinazolin‐5‐yl}nicotinamide] | 2.9 nM | 18.3 nM | 
COc1c(OCCCN2CCOCC2)ccc2c1N=C(NC(=O)c1cccnc1)N1CCN=C21 [Compd 32 g, N ‐{7‐Methoxy‐8‐[3‐(morpholin‐4‐yl)propoxy]‐2,3‐dihydroimidazo[1,2‐c]quinazolin‐5‐yl}nicotinamide] | 1.8 nM | 20.8 nM | 
COc1c(OCCN2CCOCC2)ccc2c1N=C(NC(=O)c1cccnc1)N1CCN=C21 [Compd 32 h, N ‐{7‐Methoxy‐8‐[2‐(morpholin‐4‐yl)ethoxy]‐2,3‐dihydroimidazo[1,2‐c]quinazolin‐5‐yl}nicotinamide] | 0.9 nM | 11.2 nM | 
COc1c(OCCCCN2CCOCC2)ccc2c1N=C(NC(=O)c1cccnc1)N1CCN=C21 [Compd 32 i, N ‐{7‐Methoxy‐8‐[4‐(morpholin‐4‐yl)butoxy]‐2,3‐dihydroimidazo[1,2‐c]quinazolin‐5‐yl}nicotinamide] |  | 88.1 nM | 
O=C(NC1=Nc2c(ccc(OCCCN3CCOCC3)c2O)C2=NCCN12)c1cccnc1 [Compd 33, N ‐{7‐Hydroxy‐8‐[3‐(morpholin‐4‐yl)propoxy]‐2,3‐dihydroimidazo[1,2‐c]quinazolin‐5‐yl}nicotinamide] |  | 55.6 nM | 
CCCOc1c(OCCCN2CCOCC2)ccc2c1N=C(NC(=O)c1cccnc1)N1CCN=C21 [Compd 34 a, N ‐{8‐[3‐(Morpholin‐4‐yl)propoxy]‐7‐propoxy‐2,3‐dihydroimidazo[1,2‐c]quinazolin‐5‐yl}nicotinamide] |  | 7.8 nM | 
C=CCOc1c(OCCCN2CCOCC2)ccc2c1N=C(NC(=O)c1cccnc1)N1CCN=C21 [Compd 34 b, N ‐{7‐(Allyloxy)‐8‐[3‐(morpholin‐4‐yl)propoxy]‐2,3‐dihydroimidazo[1,2‐c]quinazolin‐5‐yl}nicotinamide] |  | 22.6 nM | 
CC(C)COc1c(OCCCN2CCOCC2)ccc2c1N=C(NC(=O)c1cccnc1)N1CCN=C21 [Compd 34 c, N ‐{7‐Isobutoxy‐8‐[3‐(morpholin‐4‐yl)propoxy]‐2,3‐dihydroimidazo[1,2‐c]quinazolin‐5‐yl}nicotinamide] | 10.2 nM | 29.1 nM | 
O=C(NC1=Nc2c(ccc(OCCCN3CCOCC3)c2OCC2CCCCC2)C2=NCCN12)c1cccnc1 [Compd 34 d, N ‐{7‐(Cyclohexylmethoxy)‐8‐[3‐(morpholin‐4‐yl)propoxy]‐2,3‐dihydroimidazo[1,2‐c]quinazolin‐5‐yl}nicotinamide] |  | 88.5 nM | 
O=C(NC1=Nc2c(ccc(OCCCN3CCOCC3)c2OCC2CCOCC2)C2=NCCN12)c1cccnc1 [Compd 34 e, N ‐{8‐[3‐(Morpholin‐4‐yl)propoxy]‐7‐[(tetrahydro‐2H‐pyran‐4‐yl)methoxy]‐2,3‐dihydroimidazo[1,2‐c]quinazolin‐5‐yl}nicotinamide] | 2.1 nM | 18.2 nM | 
O=C(NC1=Nc2c(ccc(OCCCN3CCOCC3)c2OCc2ccncc2)C2=NCCN12)c1cccnc1 [Compd 34 f, N ‐{8‐[3‐(Morpholin‐4‐yl)propoxy]‐7‐[(pyridin‐4‐yl)methoxy]‐2,3‐dihydroimidazo[1,2‐c]quinazolin‐5‐yl}nicotinamide] |  | 19.3 nM | 
COc1c(OCCCN2CCOCC2)ccc2c1N=C(NC(=O)c1ccc3c(c1)OCO3)N1CCN=C21 [Compd 39 a, N ‐{7‐Methoxy‐8‐[3‐(morpholin‐4‐yl)propoxy]‐2,3‐dihydroimidazo[1,2‐c]quinazolin‐5‐yl}‐1,3‐benzodioxole‐5‐carboxamide] | 20.9 nM | 668 nM | 
COc1c(OCCCN2CCOCC2)ccc2c1N=C(NC(=O)c1sc(C)nc1C)N1CCN=C21 [Compd 39 b, N ‐{7‐Methoxy‐8‐[3‐(morpholin‐4‐yl)propoxy]‐2,3‐dihydroimidazo[1,2‐c]quinazolin‐5‐yl}‐2,4‐dimethyl‐1,3‐thiazole‐5‐carboxamide] | 1.6 nM | 7.8 nM | 
COc1c(OCCCN2CCOCC2)ccc2c1N=C(NC(=O)c1ccncc1)N1CCN=C21 [Compd 39 c, N ‐{7‐Methoxy‐8‐[3‐(morpholin‐4‐yl)propoxy]‐2,3‐dihydroimidazo[1,2‐c]quinazolin‐5‐yl}isonicotinamide] |  | 63.7 nM | 
COc1c(OCCCN2CCOCC2)ccc2c1N=C(NC(=O)c1ccnc(N)c1)N1CCN=C21 [Compd 39 d, 2‐Amino‐N‐{7‐methoxy‐8‐[3‐(morpholin‐4‐yl)propoxy]‐2,3‐dihydroimidazo[1,2‐c]quinazolin‐5‐yl}isonicotinamide] | 6.2 nM | 16.6 nM | 
COc1c(OCCCN2CCOCC2)ccc2c1N=C(NC(=O)c1ccc(N)nc1)N1CCN=C21 [Compd 39 e, 6‐Amino‐N‐{7‐methoxy‐8‐[3‐(morpholin‐4‐yl)propoxy]‐2,3‐dihydroimidazo[1,2‐c]quinazolin‐5‐yl}nicotinamide] | 0.6 nM | 7.9 nM | 
COc1c(OCCCN2CCOCC2)ccc2c1N=C(NC(=O)c1ccc(N(C)C)nc1)N1CCN=C21 [Compd 39 f, 6‐(Dimethylamino)‐N‐{7‐methoxy‐8‐[3‐(morpholin‐4‐yl)propoxy]‐2,3‐dihydroimidazo[1,2‐c]quinazolin‐5‐yl}nicotinamide] | 2.9 nM | 58.7 nM | 
COc1c(OCCCN2CCOCC2)ccc2c1N=C(NC(=O)c1cnccn1)N1CCN=C21 [Compd 39 g, N ‐{7‐Methoxy‐8‐[3‐(morpholin‐4‐yl)propoxy]‐2,3‐dihydroimidazo[1,2‐c]quinazolin‐5‐yl}pyrazine‐2‐carboxamide] |  | 351 nM | 
COc1c(OCCCN2CCOCC2)ccc2c1N=C(NC(=O)c1cncnc1)N1CCN=C21 [Compd 39 h, N ‐{7‐Methoxy‐8‐[3‐(morpholin‐4‐yl)propoxy]‐2,3‐dihydroimidazo[1,2‐c]quinazolin‐5‐yl}pyrimidine‐5‐carboxamide] | 132 nM | 286 nM | 
COc1c(OCCCN2CCOCC2)ccc2c1N=C(NC(=O)c1cnc(N)nc1)N1CCN=C21 [Compd 39 i, 2‐Amino‐N‐{7‐methoxy‐8‐[3‐(morpholin‐4‐yl)propoxy]‐2,3‐dihydroimidazo[1,2‐c]quinazolin‐5‐yl}pyrimidine‐5‐carboxamide] |  |  | plasma‐free fraction [1]: 42.5%; plasma‐free fraction [2]: 27.6%; plasma‐free fraction [3]: 42.4%; plasma‐free fraction [4]: 15.8%; Caco2 P app apical (A) to basal (B) (Caco2): 5.69 ± 0.291 ×10⁻⁶ cm/s; substrate of efflux transporter P‐gp (P‐gp [5]): substrate; substrate of efflux transporter BCRP (BCRP [6]): substrate; IC50 (P‐gp [7]; for digoxin): 7000 nM; IC50 (P‐gp [7]; for dipyridamole): 7600 nM; IC50 (BCRP [8]): 11500 nM; volume of distribution (V ss) [9]: 7 to 32 L/kg
COc1c(OCCCN2CCOCC2)ccc2c1N=C(NC(=O)c1cnc(N)nc1C)N1CCN=C21 [Compd 39 j, 2‐Amino‐N‐{7‐methoxy‐8‐[3‐(morpholin‐4‐yl)propoxy]‐2,3‐dihydroimidazo[1,2‐c]quinazolin‐5‐yl}‐4‐methylpyrimidine‐5‐carboxamide] | 0.4 nM | 1 nM | 
